Where “and” joins values, the source holds several entries; their conditions need not be identical. Identical values can stand only once.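 Method: 48-hour compound exposure of cells in 96-well plates, five concentrations, linear interpolation of endpoints. The concentration for 50% growth inhibition is given as GI50.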 Calls of active or inactive are those of the source. Rule as the data show it: active = GI50 up to about 1.1 µM and inactive = higher.
How the values were obtained:
Experiment in all cases: NCI anticancer screen, dose series, 48 h
SK-MEL-28 = test system: SK-MEL-28
HCC 2998 = test system: HCC 2998
A498 = test system: A498
SK-OV-3 = test system: SK-OV-3
SN12C = test system: SN12C
NCI-H522 = test system: NCI-H522
SK-MEL-2 = test system: SK-MEL-2
MDA-MB-231 = test system: MDA-MB-231
MDA-MB-435 = test system: MDA-MB-435
COLO 205 = test system: COLO 205
MCF7 = test system: MCF7
NCI/ADR-RES = test system: NCI/ADR-RES
U-251 = test system: U-251
SNB-75 = test system: SNB-75
Malme-3M = test system: Malme-3M
SR = test system: SR
UO-31 = test system: UO-31
SNB-19 = test system: SNB-19
HT-29 = test system: HT-29
MOLT-4 = test system: MOLT-4

SMILES	GI50 (SK-MEL-28)	GI50 (HCC 2998)	GI50 (A498)	GI50 (SK-OV-3)	GI50 (SN12C)	GI50 (NCI-H522)	GI50 (SK-MEL-2)	GI50 (MDA-MB-231)	GI50 (MDA-MB-435)	GI50 (COLO 205)	GI50 (MCF7)	GI50 (NCI/ADR-RES)	GI50 (U-251)	GI50 (SNB-75)	GI50 (Malme-3M)	GI50 (SR)	GI50 (UO-31)	GI50 (SNB-19)	GI50 (HT-29)	GI50 (MOLT-4)
CCc1nc(N)nc(N)c1-c1ccc(Cl)c(N=[N+]=[N-])c1	15.4 µM (inactive)	8.22 µM (inactive)	16.5 µM (inactive)	30.2 µM (inactive)	9.38 µM (inactive)	7.06 µM (inactive)	17.4 µM (inactive)	14.8 µM (inactive)	4.57 µM (inactive)	11.9 µM (inactive)	7.24 µM (inactive)	6.31 µM (inactive)	5.38 µM (inactive)	18.8 µM (inactive)	–	–	–	–	–	–
COc1ccc(OC)c2c(C(=O)O)c(C(C)c3ccccc3)ccc12 (configuration not stated)	> 100 µM (inactive)	> 100 µM (inactive)	> 100 µM (inactive)	> 100 µM (inactive)	> 100 µM (inactive)	> 100 µM (inactive)	> 100 µM (inactive)	–	–	> 100 µM (inactive)	–	–	91.4 µM (inactive)	> 100 µM (inactive)	> 100 µM (inactive)	> 100 µM (inactive)	> 100 µM (inactive)	> 100 µM (inactive)	> 100 µM (inactive)	> 100 µM (inactive)
NC(=O)COC(=O)c1c(Cl)nc2sccn12	> 100 µM (inactive)	> 100 µM (inactive)	> 100 µM (inactive)	> 100 µM (inactive)	> 100 µM (inactive)	> 100 µM (inactive)	> 100 µM (inactive)	–	–	> 60.3 µM (inactive)	–	–	> 83 µM (inactive)	> 100 µM (inactive)	> 100 µM (inactive)	33.8 µM (inactive)	> 100 µM (inactive)	> 100 µM (inactive)	> 100 µM (inactive)	> 100 µM (inactive)
COC(=O)C(C(=O)C(=O)Nc1ccc(Br)cc1)c1nc2ccc(Cl)cc2nc1O (configuration not stated)	> 100 µM (inactive)	> 100 µM (inactive)	> 100 µM (inactive)	> 100 µM (inactive)	> 100 µM (inactive)	> 100 µM (inactive)	> 100 µM (inactive)	–	–	> 45.2 µM (inactive)	–	–	> 100 µM (inactive)	81.7 µM (inactive)	> 100 µM (inactive)	> 100 µM (inactive)	> 82.4 µM (inactive)	> 100 µM (inactive)	> 48 µM (inactive)	80.7 µM (inactive)
C[C@]12CCC[C@H](O)[C@H]1C[C@H](CO)CC2	> 100 µM (inactive)	> 100 µM (inactive)	> 100 µM (inactive)	> 100 µM (inactive)	> 100 µM (inactive)	> 100 µM (inactive)	> 100 µM (inactive)	–	–	> 100 µM (inactive)	–	–	> 100 µM (inactive)	> 100 µM (inactive)	> 100 µM (inactive)	> 100 µM (inactive)	> 100 µM (inactive)	> 100 µM (inactive)	> 100 µM (inactive)	> 100 µM (inactive)
COc1ccc2cc1Oc1ccc(cc1)C[C@H]1c3cc(c(OC)cc3CCN1C)Oc1c(OC)c(OC)cc3c1[C@H](C2)N(C)CC3 [FANCHININ]	–	1.71 µM (inactive)	7.33 µM (inactive) and 60.5 µM (inactive)	5.9 µM (inactive) and 45.8 µM (inactive)	–	34.8 µM (inactive) and 6.61 µM (inactive)	–	5.64 µM (inactive) and 19.8 µM (inactive)	–	–	82 µM (inactive) and 6.43 µM (inactive)	–	35.7 µM (inactive) and 7.66 µM (inactive)	43.2 µM (inactive) and 6.55 µM (inactive)	–	2.47 µM (inactive) and 12.1 µM (inactive)	–	17.4 µM (inactive) and 6.61 µM (inactive)	–	–
C[C@]12CC[C@H](O)CC1=CC[C@@H]1[C@@H]2CC[C@]2(C)C(=N/O)/C(=C/c3ccc([N+](=O)[O-])cc3)C[C@@H]12	5.9 µM (inactive)	2.37 µM (inactive)	3.33 µM (inactive)	0.403 µM (active)	3.08 µM (inactive)	3.18 µM (inactive)	4.53 µM (inactive)	–	8.38 µM (inactive)	3.53 µM (inactive)	3.78 µM (inactive)	6.03 µM (inactive)	–	4.32 µM (inactive)	7.43 µM (inactive)	2.51 µM (inactive)	8.22 µM (inactive)	10.6 µM (inactive)	6.15 µM (inactive)	3.66 µM (inactive)
O=C(O)/C(Cl)=C(\Cl)C(=O)Nc1ccc(Cl)c(Cl)c1Cl	27.9 µM (inactive)	18.9 µM (inactive)	28.8 µM (inactive)	19.7 µM (inactive)	20.9 µM (inactive)	10.9 µM (inactive)	18.2 µM (inactive)	–	–	20 µM (inactive)	–	–	19.5 µM (inactive)	18.8 µM (inactive)	19.3 µM (inactive)	25.1 µM (inactive)	16.3 µM (inactive)	15.3 µM (inactive)	20.3 µM (inactive)	23.8 µM (inactive)
CCn1c(-c2ccccc2)nc2c1C(=O)c1ccccc1C2=O	56 µM (inactive)	18.2 µM (inactive)	–	20.6 µM (inactive)	20.7 µM (inactive)	15.2 µM (inactive)	–	–	15.9 µM (inactive)	14.1 µM (inactive)	25.5 µM (inactive)	13.3 µM (inactive)	29.9 µM (inactive)	–	8.81 µM (inactive)	22.3 µM (inactive)	–	32.8 µM (inactive)	8.99 µM (inactive)	14.7 µM (inactive)
CCN(CC)CCNc1ccc2nc(C)n3c4ccc(O)cc4c(=O)c1c23	2.77 µM (inactive)	0.552 µM (active)	2.69 µM (inactive)	1.14 µM (inactive)	0.618 µM (active)	0.179 µM (active)	7.24 µM (inactive)	–	–	–	–	–	0.745 µM (active)	1.09 µM (active)	3.56 µM (inactive)	0.049 µM (active)	1.94 µM (inactive)	0.546 µM (active)	0.246 µM (active)	0.0447 µM (active)
O=c1c2cc([N+](=O)[O-])ccc2[nH]n1Cc1ccccc1Cl	44.6 µM (inactive)	57.9 µM (inactive)	33.3 µM (inactive)	–	86.1 µM (inactive)	32.7 µM (inactive)	–	70.5 µM (inactive)	64.9 µM (inactive)	73.3 µM (inactive)	–	40.6 µM (inactive)	75.5 µM (inactive)	> 100 µM (inactive)	26.7 µM (inactive)	43.5 µM (inactive)	39 µM (inactive)	> 100 µM (inactive)	54.8 µM (inactive)	74 µM (inactive)
CCO/C(=N/S(=O)(=O)C(F)(F)F)N(C(C)C)C(C)C	> 100 µM (inactive)	–	> 100 µM (inactive)	–	> 100 µM (inactive)	> 100 µM (inactive)	> 100 µM (inactive)	> 100 µM (inactive)	> 100 µM (inactive)	> 100 µM (inactive)	> 100 µM (inactive)	> 100 µM (inactive)	> 100 µM (inactive)	–	> 100 µM (inactive)	–	–	> 100 µM (inactive)	> 100 µM (inactive)	> 100 µM (inactive)
CCOC(OCC)C(CC)[Se]c1ccccc1 (configuration not stated)	> 100 µM (inactive)	35.2 µM (inactive)	> 100 µM (inactive)	> 100 µM (inactive)	41 µM (inactive)	15.6 µM (inactive)	> 100 µM (inactive)	–	–	39.8 µM (inactive)	–	–	2.25 µM (inactive)	35.3 µM (inactive)	5.02 µM (inactive)	10.1 µM (inactive)	> 100 µM (inactive)	> 100 µM (inactive)	> 100 µM (inactive)	37.2 µM (inactive)
OCCCCCCOc1ccc(-c2cc(-c3ccccn3)nc(-c3ccccn3)c2)cc1	0.248 µM (active)	0.187 µM (active)	1.11 µM (active)	0.211 µM (active)	0.424 µM (active)	0.536 µM (active)	0.233 µM (active)	–	0.462 µM (active)	0.372 µM (active)	0.0321 µM (active)	–	0.0877 µM (active)	0.637 µM (active)	0.404 µM (active)	0.0286 µM (active)	0.202 µM (active)	0.158 µM (active)	0.228 µM (active)	0.0274 µM (active)
NCCCNCCCCN1CC1	7.76 µM (inactive)	7.06 µM (inactive)	–	2.25 µM (inactive)	3.77 µM (inactive)	2.81 µM (inactive)	1.69 µM (inactive)	1.4 µM (inactive)	3.6 µM (inactive)	1.02 µM (active)	28.9 µM (inactive)	3.33 µM (inactive)	2.84 µM (inactive)	0.372 µM (active)	4.57 µM (inactive)	–	7.18 µM (inactive)	6.55 µM (inactive)	7.05 µM (inactive)	1.26 µM (inactive)
CC1CC2C3CCC4=CC(=O)C=CC4(C)C3(F)C(O)CC2(C)C1(O)C(=O)CO.Cc1cc(NS(=O)(=O)c2ccc(/N=N\c3cc(/N=N/c4ccc(S(=O)(=O)Nc5cc(C)nc(C)n5)cc4)c(OC(=O)C(Cl)Cl)c4cccc(NC(=O)C(Cl)Cl)c34)cc2)nc(C)n1	27 µM (inactive)	18.4 µM (inactive)	27.5 µM (inactive)	> 100 µM (inactive)	12.6 µM (inactive)	15 µM (inactive)	29.4 µM (inactive)	–	–	28.2 µM (inactive)	–	–	18 µM (inactive)	42.8 µM (inactive)	20.6 µM (inactive)	25.4 µM (inactive)	19.8 µM (inactive)	16.5 µM (inactive)	24.4 µM (inactive)	27.4 µM (inactive)
COC1C(O)C(C)OC(OC2C(Oc3cccc4c(O)c5c(=O)oc6ccc(C)c7c(=O)oc(c34)c5c67)OC(C)C3O[C@H](c4ccccc4)OC32)C1O (some centres not stated)	0.319 µM (active)	0.453 µM (active)	0.0731 µM (active)	0.533 µM (active)	0.0578 µM (active)	–	0.824 µM (active)	0.845 µM (active)	–	–	0.084 µM (active)	2.12 µM (inactive)	0.196 µM (active)	0.583 µM (active)	0.845 µM (active)	–	0.294 µM (active)	0.13 µM (active)	0.0877 µM (active)	–

Source: ChEMBL document CHEMBL1201862, “PubChem BioAssay data set” (2004)
